Measured values from publication PMC7408607, “A Multiple N-Glucosylated Peptide Epitope Efficiently Detecting Antibodies in Multiple Sclerosis” (Brain Sciences, 2020).
Like-named read-outs stand apart in the source and are kept apart here. Residues, ends and D or L forms follow the SMILES beside them. *: point of attachment. NH(β-D-Glc) = OC[C@H]1O[C@@H](N*)[C@H](O)[C@@H](O)[C@@H]1O

Test system: anti-CSF114(Glc) IgG antibodies from MS patients' serum
Assay: Competitive (inhibition) ELISA on plates coated with CSF114(Glc)
Type: binding, human
Details: for Log1/IC50 ± Std Error: Table S4, shortened peptides versus CSF114(Glc), one representative positive MS serum
Procedure: Washing steps were executed with an automatic Hydroflex microplate washer (Tecan Italia, Milano, Italy). After five washes with washing buffer containing 0.9% NaCl and 0.05% Tween 20, nonspecific binding sites were blocked with 100 μL per well fetal calf serum (FCS) buffer solution (10% in washing buffer) at room temperature for 60 min.
Antibody affinity was measured following the inhibition methods reported elsewhere. Semi-saturating sera dilution was calculated in preliminary titration curves (absorbance 0.7). Six different concentrations of each synthetic antigenic peptide probe were used as inhibitors. Then, sera samples at the selected dilution were incubated in parallel with increasing concentrations of the synthetic shortened peptide sequences (range 1 × 10^−10 to 1 × 10^−4) for 60 min at room temperature. All inhibition experiments were performed in duplicate or triplicate for each single MS patient’s serum positive to CSF114(Glc) separately. All experiments were repeated at least twice on two different working days.
After three washes, uninhibited antibodies were identified by adding 100 µL/well of alkaline phosphatase-conjugated anti-human immunoglobulin G (IgG, Sigma-Aldrich, Milano, Italy) diluted 1:8000 in washing buffer containing 10% FCS. The microplates were then incubated 3 h at room temperature and, after three washes, 100 µL of substrate solution consisting of 1 mg/mL p-nitrophenyl phosphate (Sigma-Aldrich, Milano, Italy) in 10% diethanolamine buffer (pH 9.8) were added. After approximately 30 min, the reaction was stopped with 1M NaOH solution (50 µL/well), and the absorbance was read in a multichannel ELISA reader (Tecan Sunrise, Männedorf, Switzerland) at 405 nm. The selected ELISA microplates, coating conditions, reagent dilutions, buffers, and incubation times were previously tested. The relationship between peptide concentrations and the absorbance values was represented graphically in absorbance inhibition percentage, and half-maximal response concentration values (IC50) were calculated.

[1] = shortened CSF114(Glc) series (Figure 2, Table S4), one representative positive MS patient's serum, inhibitor 1 × 10^−10 to 1 × 10^−4, absorbance 405 nm, non-linear regression least squares fit, read-out: IC50
[2] = Table S5, tri- and pentapeptides 9-22 and CSF114(Glc), representative MS serum (Figure 3)
[3] = Table S5, tri- and pentapeptides 9-22 and CSF114(Glc), representative MS serum (Figure 3), CI 95% in brackets, read-out: IC50(M)[CI95%]
[4] = serum MS1 (Figure S2A), one of three MS positive sera tested in parallel, read-out: IC50
[5] = serum MS3 (Figure S2C), read-out: IC50

| Compound | Log1/IC50 ± StdError [2] | other results |
| --- | --- | --- |
| CC(=O)N[C@@H](CCC(=O)O)C(=O)N[C@@H](CCCNC(=N)N)C(=O)N[C@@H](CC(=O)N[C@@H]1O[C@H](CO)[C@@H](O)[C@H](O)[C@H]1O)C(=O)NCC(=O)N[C@@H](Cc1c[nH]cn1)C(=O)N[C@@H](CO)C(N)=O [[Asn7(Glc)]CSF114(5‒10) (7), [Asn^7(Glc)] CSF114(5–10)] (Ac-ERD(NH(β-D-Glc))GHS-NH2) | – | Log1/IC50 ± Std Error: 5.4 ± 0.10; IC50 [1]: 3.5e-06 M |
| CC(=O)N[C@@H](CCCNC(=N)N)C(=O)N[C@@H](CC(=O)N[C@@H]1O[C@H](CO)[C@@H](O)[C@H](O)[C@H]1O)C(=O)NCC(=O)N[C@@H](Cc1c[nH]cn1)C(N)=O [[Asn7(Glc)]CSF114(6‒9) (8), [Asn^7(Glc)] CSF114(6–9)] (Ac-RD(NH(β-D-Glc))GH-NH2) | – | Log1/IC50 ± Std Error: 5.7 ± 0.25 |
| CC(=O)N[C@@H](CC(=O)N[C@@H]1O[C@H](CO)[C@@H](O)[C@H](O)[C@H]1O)C(=O)N[C@@H](C)C(=O)N[C@H](C(N)=O)[C@@H](C)O [Ac-N(Glc)AT-NH2(15), Ac-N(Glc)AT-NH2] | 5.005 ± 0.05558 | IC50 [3]: 7e-06 M |
| CC(=O)N[C@@H](CCC(=O)O)C(=O)N[C@@H](CCCNC(=N)N)C(=O)N[C@@H](CC(=O)N[C@@H]1O[C@H](CO)[C@@H](O)[C@H](O)[C@H]1O)C(=O)NCC(=O)N[C@@H](Cc1c[nH]cn1)C(N)=O [Ac-ERN(Glc)GH-NH2(20), Ac-ERN(Glc)GH-NH2] (Ac-ERD(NH(β-D-Glc))GH-NH2) | 5.95 ± 0.112 | – |
| CC(=O)N[C@@H](CCC(=O)O)C(=O)N[C@@H](CCCNC(=N)N)C(=O)N[C@@H](CC(=O)N[C@@H]1O[C@H](CO)[C@@H](O)[C@H](O)[C@H]1O)C(=O)N[C@@H](CCCCN)C(=O)N[C@@H](Cc1c[nH]cn1)C(N)=O [Ac-ERN(Glc)KH-NH2(21), Ac-ERN(Glc)KH-NH2] (Ac-ERD(NH(β-D-Glc))KH-NH2) | 5.98 ± 0.1482 | – |
| CC(=O)N[C@@H](CCCCN)C(=O)NCC(=O)N[C@@H](CC(=O)N[C@@H]1O[C@H](CO)[C@@H](O)[C@H](O)[C@H]1O)C(=O)N[C@@H](C)C(=O)N[C@H](C(N)=O)[C@@H](C)O [Ac-KGN(Glc)AT-NH2(22), Ac-KGN(Glc)AT-NH2] (Ac-KGD(NH(β-D-Glc))AT-NH2) | 6.22 ± 0.07 | – |
| CC(=O)N[C@@H](CC(=O)N[C@@H]1O[C@H](CO)[C@@H](O)[C@H](O)[C@H]1O)C(=O)NCC(=O)N[C@@H](Cc1c[nH]cn1)C(N)=O [Ac-N(Glc)GH-NH2(13), Ac-N(Glc)GH-NH2] | 5.226 ± 0.0433 | IC50 [3]: 6.94e-06 M |
| CC(=O)N[C@@H](CC(=O)N[C@@H]1O[C@H](CO)[C@@H](O)[C@H](O)[C@H]1O)C(=O)N[C@@H](CCCCN)C(=O)N[C@@H](CO)C(N)=O [Ac-N(Glc)KS-NH2(11), Ac-N(Glc)KS-NH2] | 5.942 ± 0.1911 | – |
| CC(=O)N[C@@H](CCC(=O)O)C(=O)N[C@@H](CCCNC(=N)N)C(=O)N[C@@H](CC(=O)N[C@@H]1O[C@H](CO)[C@@H](O)[C@H](O)[C@H]1O)C(=O)NCC(=O)N[C@@H](CO)C(N)=O [Ac-ERN(Glc)GS-NH2(16), Ac-ERN(Glc)GS-NH2] (Ac-ERD(NH(β-D-Glc))GS-NH2) | 5.677 ± 0.1444 | – |
| CC(=O)N[C@@H](CC(=O)N[C@@H]1O[C@H](CO)[C@@H](O)[C@H](O)[C@H]1O)C(=O)N[C@@H](CCCCN)C(=O)N[C@@H](Cc1c[nH]cn1)C(N)=O [Ac-N(Glc)KH-NH2(14), Ac-N(Glc)KH-NH2] | 5.160 ± 0.01636 | – |
| CC(=O)N[C@@H](CC(=O)N[C@@H]1O[C@H](CO)[C@@H](O)[C@H](O)[C@H]1O)C(=O)NCCCOCCOCCOCCCNC(=O)CCC(=O)NCCCC[C@H](NC(=O)CCC(=O)NCCCOCCOCCOCCCNC(=O)[C@H](CC(=O)N[C@@H]1O[C@H](CO)[C@@H](O)[C@H](O)[C@H]1O)NC(C)=O)C(=O)NCCCC[C@H](NC(=O)[C@H](CCCCNC(=O)CCC(=O)NCCCOCCOCCOCCCNC(=O)[C@H](CC(=O)N[C@@H]1O[C@H](CO)[C@@H](O)[C@H](O)[C@H]1O)NC(C)=O)NC(=O)CCC(=O)NCCCOCCOCCOCCCNC(=O)[C@H](CC(=O)N[C@@H]1O[C@H](CO)[C@@H](O)[C@H](O)[C@H]1O)NC(C)=O)C(=O)NCCC(=O)O [N-Glc MEP (24)] | – | IC50 [4]: 2.15e-08 M; IC50 [5]: 2.15e-08 M |
| CSCC[C@H](NC(=O)[C@H](Cc1c[nH]c2ccccc12)NC(=O)CNC(=O)[C@H](Cc1ccc(O)cc1)NC(=O)[C@@H]1CCCN1C(=O)[C@H](C)NC(=O)[C@H](CC(C)C)NC(=O)[C@H](Cc1ccccc1)NC(=O)[C@@H](NC(=O)[C@H](CO)NC(=O)[C@H](Cc1c[nH]cn1)NC(=O)CNC(=O)[C@H](CC(=O)N[C@@H]1O[C@H](CO)[C@@H](O)[C@H](O)[C@H]1O)NC(=O)[C@H](CCCNC(=N)N)NC(=O)[C@H](CCC(=O)O)NC(=O)[C@@H](NC(=O)[C@H](CCCNC(=N)N)NC(=O)[C@@H]1CCCN1C(=O)[C@@H](N)[C@@H](C)O)C(C)C)C(C)C)C(=O)N[C@H](C(=O)N[C@@H](CCCCN)C(=O)O)C(C)C [CSF114(Glc) (1), CSF114(Glc), reference compound] | 6.46 ± 0.083 | Log1/IC50 ± Std Error: 6.14 ± 0.083; IC50 [4]: 5.2e-07 M; IC50 [5]: 5.12e-09 M; IC50 [1]: 9e-09 M |
| CC(=O)N[C@@H](CCC(=O)O)C(=O)N[C@@H](CCCNC(=N)N)C(=O)N[C@@H](CC(=O)N[C@@H]1O[C@H](CO)[C@@H](O)[C@H](O)[C@H]1O)C(=O)NCC(=O)N[C@H](C(N)=O)[C@@H](C)O [Ac-ERN(Glc)GT-NH2(17), Ac-ERN(Glc)GT-NH2] (Ac-ERD(NH(β-D-Glc))GT-NH2) | 6.23 ± 0.14 | – |
| CC(=O)N[C@H](C(=O)N[C@@H](CCC(=O)O)C(=O)N[C@@H](CCCNC(=N)N)C(=O)N[C@@H](CC(=O)N[C@@H]1O[C@H](CO)[C@@H](O)[C@H](O)[C@H]1O)C(=O)NCC(=O)N[C@@H](Cc1c[nH]cn1)C(=O)N[C@@H](CO)C(=O)N[C@H](C(N)=O)C(C)C)C(C)C [[Asn7(Glc)]CSF114(4‒11) (6), [Asn^7(Glc)] CSF114(4–11)] (Ac-VERD(NH(β-D-Glc))GHSV-NH2) | – | Log1/IC50 ± Std Error: 6.2 ± 0.29 |
| CC(=O)N[C@@H](CC(=O)N[C@@H]1O[C@H](CO)[C@@H](O)[C@H](O)[C@H]1O)C(=O)N[C@@H](CCCCN)C(=O)N[C@H](C(N)=O)[C@@H](C)O [Ac-N(Glc)KT-NH2(12), Ac-N(Glc)KT-NH2] | 6.010 ± 0.06024 | – |
| CC(=O)N[C@@H](CC(=O)N[C@@H]1O[C@H](CO)[C@@H](O)[C@H](O)[C@H]1O)C(=O)NCC(=O)N[C@H](C(N)=O)[C@@H](C)O [Ac-N(Glc)GT-NH2(10), Ac-N(Glc)GT-NH2] | 5.129 ± 0.1170 | – |
| CC(=O)N[C@@H](CCC(=O)O)C(=O)N[C@@H](CCCNC(=N)N)C(=O)N[C@@H](CC(=O)N[C@@H]1O[C@H](CO)[C@@H](O)[C@H](O)[C@H]1O)C(=O)N[C@@H](CCCCN)C(=O)N[C@@H](CO)C(N)=O [Ac-ERN(Glc)KS-NH2(18), Ac-ERN(Glc)KS-NH2] (Ac-ERD(NH(β-D-Glc))KS-NH2) | 5.59 ± 0.19 | – |
| CC(=O)N[C@@H](CC(=O)N[C@@H]1O[C@H](CO)[C@@H](O)[C@H](O)[C@H]1O)C(=O)NCC(=O)N[C@@H](CO)C(N)=O [Ac-N(Glc)GS-NH2(9), Ac-N(Glc)GS-NH2] | 5.137 ± 0.063 | – |
